Measurements reported in US20260274892A1, “MACROCYCLIC BROAD SPECTRUM ANTIBIOTICS” (RQx Pharmaceuticals, Inc., priority 2017, published 2026).

How the values were obtained:
[1] = system: Escherichia coli ATCC 25922; assay: Minimum inhibitory concentration (MIC), CLSI broth micro-dilution, E. coli; type: cell-based; settings: Escherichia coli, ATCC25922, 22 h, Table 6, cation adjusted Mueller Hinton Broth + 0.002% Tween-80, 35° C.
How it was run: (§1)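 Antibacterial potency is measured as MIC by the CLSI broth dilution method. Bacteria at OD600 0.0005 in Tween-80-supplemented cation-adjusted Mueller Hinton broth face ten twofold compound dilutions for 22 h at 35° C.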

[2] = system: Methicillin Resistant Staphylococcus aureus strain USA 200; assay: Minimum inhibitory concentration (MIC), CLSI broth micro-dilution, S. aureus; type: cell-based; settings: Staphylococcus aureus, MRSA / USA200; Table 6; MRSA USA 200; cation adjusted Mueller Hinton Broth + 0.002% Tween-80; 35° C., 22 hours
How it was run: as §1

Row | SMILES | MIC [1] [µM] | MIC [2] [µM]
1 | CCCCCOc1ccc(-c2nc(C)c(C(=O)N[C@@H](CCN)C(=O)N(C)[C@@H]3C(=O)N[C@@H](C)C(=O)N[C@H](C(=O)NCC#N)Cc4ccc(OCCCN)c(c4)-c4cc3ccc4OCCCN)c(C)n2)cc1 (racemic) [Compound 435, rac-(8S,11S,14S)-3,18-bis(3-aminopropoxy)-N-(cyanomethyl)-11-methyl-14-[methyl-[rac-(2S)-4-amino-2-[[4,6-dimethyl-2-(4-pentoxyphenyl)pyrimidine-5-carbonyl]amino]butanoyl]amino]-10,13-dioxo-9,12-diazatricyclo[13.3.1.12,6]icosa-1(18),2(20),3,5,15(19),16-hexaene-8-carboxamide] | 0.094 | 0.012
2 | CCCOc1ccc(-c2nc(C)c(C(=O)N[C@@H](CCN)C(=O)N(C)[C@@H]3C(=O)N[C@@H](C)C(=O)N[C@H](C(=O)NCC#N)Cc4ccc(OCCN)c(c4)-c4cc3ccc4OCCN)c(C)n2)cc1 (racemic) [Compound 330, rac-(8S,11S,14S)-3,18-bis(2-aminoethoxy)-N-(cyanomethyl)-11-methyl-14-[methyl-[rac-(2S)-4-amino-2-[[4,6-dimethyl-2-(4-propoxyphenyl)pyrimidine-5-carbonyl]amino]butanoyl]amino]-10,13-dioxo-9,12-diazatricyclo[13.3.1.12,6]icosa-1(18),2(20),3,5,15(19),16-hexaene-8-carboxamide] | 0.26 | 0.033
3 | Cc1nc(-n2ccc(C(C)(C)C)cc2=O)nc(C)c1C(=O)N[C@@H](CCN)C(=O)N(C)[C@@H]1C(=O)N[C@@H](C)C(=O)N[C@H](C(=O)NCC#N)Cc2ccc(OCCN)c(c2)-c2cc1ccc2OCCN (racemic) [Compound 319, rac-(8S,11S,14S)-3,18-bis(2-aminoethoxy)-N-(cyanomethyl)-11-methyl-14-[methyl-[rac-(2S)-4-amino-2-[[2-(4-tert-butyl-2-oxo-1-pyridyl)-4,6-dimethyl-pyrimidine-5-carbonyl]amino]butanoyl]amino]-10,13-dioxo-9,12-diazatricyclo[13.3.1.12,6]icosa-1(18),2(20),3,5,15(19),16-hexaene-8-carboxamide] | 8 | 1
4 | CCCCCCc1cnc2cc(C(=O)N[C@@H](CCN)C(=O)N(C)[C@@H]3C(=O)N[C@@H](C)C(=O)N[C@H](C(=O)NCC#N)Cc4ccc(OCCN)c(c4)-c4cc3ccc4OCCN)c(C)nc2c1 (racemic) [Compound 398, rac-(8S,11S,14S)-3,18-bis(2-aminoethoxy)-N-(cyanomethyl)-11-methyl-14-[methyl-[rac-(2S)-4-amino-2-[(7-hexyl-2-methyl-1,5-naphthyridine-3-carbonyl)amino]butanoyl]amino]-10,13-dioxo-9,12-diazatricyclo[13.3.1.12,6]icosa-1(18),2(20),3,5,15(19),16-hexaene-8-carboxamide] | 0.27 | 0.025
5 | C[C@@H]1NC(=O)[C@@H](N(C)C(=O)[C@H](CCN)NC(=O)c2ccn(-c3ccc(C(C)(C)C)cc3)c(=O)c2)c2ccc(OCCN)c(c2)-c2cc(ccc2OCCN)C[C@@H](C(=O)NCC#N)NC1=O (racemic) [Compound 383, rac-(8S,11S,14S)-3,18-bis(2-aminoethoxy)-N-(cyanomethyl)-11-methyl-14-[methyl-[rac-(2S)-4-amino-2-[[1-(4-tert-butylphenyl)-2-oxo-pyridine-4-carbonyl]amino]butanoyl]amino]-10,13-dioxo-9,12-diazatricyclo[13.3.1.12,6]icosa-1(18),2(20),3,5,15(19),16-hexaene-8-carboxamide] | 1.1 | 0.1
6 | Cc1nc(Cc2ccc(C(C)(C)C)cc2)nc(C)c1C(=O)N[C@@H](CCN)C(=O)N(C)[C@@H]1C(=O)N[C@@H](C)C(=O)N[C@H](C(=O)NCC#N)Cc2ccc(OCCN)c(c2)-c2cc1ccc2OCCN (racemic) [Compound 287, rac-(8S,11S,14S)-3,18-bis(2-aminoethoxy)-N-(cyanomethyl)-11-methyl-14-[methyl-[rac-(2S)-4-amino-2-[[2-[(4-tert-butylphenyl)methyl]-4,6-dimethyl-pyrimidine-5-carbonyl]amino]butanoyl]amino]-10,13-dioxo-9,12-diazatricyclo[13.3.1.12,6]icosa-1(18),2(20),3,5,15(19),16-hexaene-8-carboxamide] | 1 | 0.065

The remaining compounds from weak to strong by MIC [1], led by results:

Row | MIC [1] [µM] | MIC [2] [µM] | SMILES
7 | 0.25 | 0.016 | Cc1cc(-c2ccc(OC3CCCCC3)cc2)nc(C)c1C(=O)N[C@@H](CCN)C(=O)N(C)[C@@H]1C(=O)N[C@@H](C)C(=O)N[C@H](C(=O)NCC#N)Cc2ccc(OCCN)c(c2)-c2cc1ccc2OCCN (racemic) [Compound 364, rac-(8S,11S,14S)-3,18-bis(2-aminoethoxy)-N-(cyanomethyl)-11-methyl-14-[methyl-[rac-(2S)-4-amino-2-[[6-[4-(cyclohexoxy)phenyl]-2,4-dimethyl-pyridine-3-carbonyl]amino]butanoyl]amino]-10,13-dioxo-9,12-diazatricyclo[13.3.1.12,6]icosa-1(18),2(20),3,5,15(19),16-hexaene-8-carboxamide]
8 | 0.21 | 0.055 | Cc1nc(-c2ccc(C(C)(C)C)cc2)nc(C)c1C(=O)N[C@@H](CCN)C(=O)N(C)[C@@H]1C(=O)N[C@@H](C)C(=O)N[C@H](C(=O)NCC#N)Cc2ccc(OCCN)c(c2)-c2cc1ccc2O (racemic) [Compound 553, rac-(8S,11S,14S)-3-(2-aminoethoxy)-N-(cyanomethyl)-18-hydroxy-11-methyl-14-[methyl-[rac-(2S)-4-amino-2-[[2-(4-tert-butylphenyl)-4,6-dimethyl-pyrimidine-5-carbonyl]amino]butanoyl]amino]-10,13-dioxo-9,12-diazatricyclo[13.3.1.12,6]icosa-1(18),2(20),3,5,15(19),16-hexaene-8-carboxamide]
9 | 0.13 | 0.016 | CC(C)=Cc1ccc(C#Cc2nc(C)c(C(=O)N[C@@H](CCN)C(=O)N(C)[C@@H]3C(=O)N[C@@H](C)C(=O)N[C@H](C(=O)NCC#N)Cc4ccc(OCCN)c(c4)-c4cc3ccc4OCCN)c(C)n2)cc1 (racemic) [Compound 313, rac-(8S,11S,14S)-3,18-bis(2-aminoethoxy)-N-(cyanomethyl)-11-methyl-14-[methyl-[rac-(2S)-4-amino-2-[[4,6-dimethyl-2-[2-[4-(2-methylprop-1-enyl)phenyl]ethynyl]pyrimidine-5-carbonyl]amino]butanoyl]amino]-10,13-dioxo-9,12-diazatricyclo[13.3.1.12,6]icosa-1(18),2(20),3,5,15(19),16-hexaene-8-carboxamide]
10 | 0.13 | 0.031 | Cc1cc(-c2ccc(C(C)(C)C)cc2)ccc1C(=O)N[C@@H](CCN)C(=O)N(C)[C@@H]1C(=O)N[C@@H](C)C(=O)N[C@H](C(=O)NCC#N)Cc2ccc(OCCN)c(c2)-c2cc1ccc2OCCN (racemic) [Compound 203, rac-(8S,11S,14S)-3,18-bis(2-aminoethoxy)-N-(cyanomethyl)-11-methyl-14-[methyl-[rac-(2S)-4-amino-2-[[4-(4-tert-butylphenyl)-2-methyl-benzoyl]amino]butanoyl]amino]-10,13-dioxo-9,12-diazatricyclo[13.3.1.12,6]icosa-1(18),2(20),3,5,15(19),16-hexaene-8-carboxamide]
11 | 0.13 | 0.031 | Cc1nc(-c2ccc(C3(C)CC3)cc2)nc(C)c1C(=O)N[C@@H](CCN)C(=O)N(C)[C@@H]1C(=O)N[C@@H](C)C(=O)N[C@H](C(=O)NCC#N)Cc2ccc(OCCN)c(c2)-c2cc1ccc2OCCN (racemic) [Compound 280, rac-(8S,11S,14S)-3,18-bis(2-aminoethoxy)-N-(cyanomethyl)-11-methyl-14-[methyl-[rac-(2S)-4-amino-2-[[4,6-dimethyl-2-[4-(1-methylcyclopropyl)phenyl]pyrimidine-5-carbonyl]amino]butanoyl]amino]-10,13-dioxo-9,12-diazatricyclo[13.3.1.12,6]icosa-1(18),2(20),3,5,15(19),16-hexaene-8-carboxamide]
12 | 0.12 | 0.016 | CCCCc1ccc(-c2nc(C)c(C(=O)N[C@@H](CCN)C(=O)N(C)[C@@H]3C(=O)N[C@@H](C)C(=O)N[C@H](C(=O)NCC#N)Cc4ccc(OCCN)c(c4)-c4cc3ccc4OCCN)c(C)n2)cc1CCCC (racemic) [Compound 268, rac-(8S,11S,14S)-3,18-bis(2-aminoethoxy)-N-(cyanomethyl)-11-methyl-14-[methyl-[rac-(2S)-4-amino-2-[[2-(3,4-dibutylphenyl)-4,6-dimethyl-pyrimidine-5-carbonyl]amino]butanoyl]amino]-10,13-dioxo-9,12-diazatricyclo[13.3.1.12,6]icosa-1(18),2(20),3,5,15(19),16-hexaene-8-carboxamide]
13 | 0.063 | 0.0078 | Cc1nc(C2=CCC(C(C)(C)C)CC2)nc(C)c1C(=O)N[C@@H](CCN)C(=O)N(C)[C@@H]1C(=O)N[C@@H](C)C(=O)N[C@H](C(=O)NCC#N)Cc2ccc(OCCN)c(c2)-c2cc1ccc2OCCN (mixture of isomers) [Compound 295, rac-(8S,11S,14S)-3,18-bis(2-aminoethoxy)-N-(cyanomethyl)-11-methyl-14-[methyl-[rac-(2S)-4-amino-2-[[2-(4-tert-butylcyclohexen-1-yl)-4,6-dimethyl-pyrimidine-5-carbonyl]amino]butanoyl]amino]-10,13-dioxo-9,12-diazatricyclo[13.3.1.12,6]icosa-1(18),2(20),3,5,15(19),16-hexaene-8-carboxamide]
